Experimental data: US10829487B2, “Benzylamino substituted pyridopyrimidinones and derivatives as SOS1 inhibitors” (Boehringer Ingelheim International GmbH, priority 2017, dated 2020)

What was measured:
[1] = biological target: protein-protein interaction between SOS1 and KRAS G12D (Homo sapiens (Human), UniProt Q07889); test: KRAS::SOS1 AlphaScreen Binding Assay
Procedure, shortened: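 Nucleotide-exchange interaction read by AlphaScreen (GSH acceptor / streptavidin donor beads, 10 μg/mL each): 10 nM KRAS G12D(1-169)-Avi, 10 μM GDP, 5 nM GST-SOS1(564-1049), 1% DMSO. Compound preincubated 30 min, then beads 60 min at RT in the dark; 11-point 1:5 series from 100 μM, duplicates; IC50 by 4-parameter logistic fit.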

CYP3A4 = CYP3A4 (Homo sapiens (Human), UniProt P08684); test: Time dependent inhibition of CYP3A4 assay (TDI 3A4); assay type: in vitro ADME; details: hydroxy-midazolam formation after 30 min relative to 0 min preincubation; 25 uM compound; human liver microsomes; midazolam substrate
Description: Time Dependent Inhibition of CYP3A4 Assay (TDI 3A4):
After preincubation, the incubate is diluted 1:10 and the substrate midazolam is added for the main incubation (15 min). The main incubation is quenched with acetonitrile and the formation of hydroxy-midazolam is quantified via LC/MS-MS. The formation of hydroxy-midazolam from the 30 min preincubation relative to the formation from the 0 min preincubation is used as a readout. Values of less than 100% mean that the substrate midazolam is metabolized to a lower extend upon 30 min preincubation compared to 0 min preincubation. In general low effects upon 30 min preincubation are desired (corresponding to values close to 100%)

[2] = tested on: ERK phosphorylation in DLD-1 cells (KRAS G13D); test: ERK Phosphorylation Assay (AlphaLISA SureFire Ultra p-ERK1/2); assay type: cell-based; details: Homo sapiens, 1 h compound, EGF 50 ng/mL 10 min, read-out: pERK
Description: ERK Phosphorylation Assay
Low IC50 values are indicative of high potency of the SOS1 inhibitor compounds in this assay setting.
ERK phosphorylation assays are performed using the following human cell lines: DLD-1 (ATCC CCL-221): human colon cancer with a KRAS G13D mutation;
DLD-1 cells (ATCC CCL-221) are seeded at 50,000 cells per well in/60 μL of RPMI with 10% FBS, non-essential amino acids, pyruvate and glutamax in Greiner TC 384 plates. The cells are incubated for 1 h at room temperature and then incubated overnight in an incubator at 37° C. and 5% CO2 in a humidified atmosphere. 60 nL compound solution (10 mM DMSO stock solution) is then added using a Labcyte Echo 550 device. After a 1 h incubation in the aforementioned incubator, 3 μL Epidermal Growth Factor (EGF, final concentration 50 ng/mL) is added. 10 minutes later the medium is removed, and the cells lysed by addition of 20 μL of 1.6-fold lysis buffer from the AlphaLISA SureFire Ultra pERK1/2 (Thr202/Tyr204) Assay Kit with added protease inhibitors, 100 nM trametinib+100 nM staurosporine. After 20 minutes of incubation at room temperature with shaking, 6 μL of each lysate sample is transferred to a 384-well Proxiplate and analyzed for pERK (Thr202/Tyr204) with the AlphaLISA SureFire Ultra pERK1/2 (Thr202/Tyr204) Assay Kit. 3 μL Acceptor Mix and 3 μL Donor Mix are added under subdued light and incubated for 2 h at room temperature in the dark, before the signal is measured on a Perkin Elmer Envision plate reader using 384 AlphaScreen settings for Proxiplates. Data are fitted by iterative calculation with variable hill slope. The sigmoidal curve slope is fitted using a default fitting curve to ascertain IC50 values.

[3] = Metabolic (microsomal) stability assay, mouse liver microsomes (MLM); assay type: in vitro ADME; details: 1 μM test compound, 37° C.
Description: (§1) Metabolic (Microsomal) Stability Assay: The metabolic degradation of the test compound is assayed at 37° C. with pooled liver microsomes (mouse (MLM), rat (RLM) or human (HLM)). The final incubation volume of 74 μL per time point contains TRIS buffer (pH 7.5; 0.1 M), magnesium chloride (6.5 mM), microsomal protein (0.5 mg/mL for mouse/rat, 1 mg/mL for human specimens) and the test compound at a final concentration of 1 μM. Following a short preincubation period at 37° C., the reactions are initiated by addition of 8 μL beta-nicotinamide adenine dinucleotide phosphate, reduced form (NADPH, 10 mM) and terminated by transfering an aliquot into solvent after different time points. Additionally, the NADPH-independent degradation is monitored in incubations without NADPH, terminated at the last time point by addition of acetonitrile. The quenched incubations are pelleted by centrifugation (1811 g, 5 min). An aliquot of the supernatant is assayed by LC-MS/MS for the amount of parent compound. In vitro intrinsic clearance (CLint, in vitro) is calculated from the time course of the disappearance of the test drug during the microsomal incubation. Each plot is fitted to the first-order elimination rate constant as C(t)=C0*exp(−ke*t), where C(t) and C0 are the concentration of unchanged test drug at incubation time t and that at preincubation and ke is the disappearance rate constant of the unchanged drug. Subsequently, CLint, in vitro (μL min^−1·amount protein) values are converted to CLint, in vitro (mL min^−1·kg^−1) for the whole body. CLint, in vitro data are scaled up using physiological parameters. For better across species comparison the predicted clearance is expressed as percent of the liver blood flow [% QH] in the individual species. In general, high stability (corresponding to low % QH) of the compounds across species is desired.

[4] = Metabolic (microsomal) stability assay, rat liver microsomes (RLM); assay type: in vitro ADME; details: 1 μM test compound, 37° C.
Description: as §1

[5] = Metabolic (microsomal) stability assay, human liver microsomes (HLM); assay type: in vitro ADME; details: 1 μM test compound, 37° C.
Description: as §1

[6] = Table 20, KRAS::SOS1 AlphaScreen (SOS1 / KRAS G12D)
[7] = KRAS G12D::SOS1 AlphaScreen, measured without EDTA unless marked with an asterisk

Sequence of protein-protein interaction between SOS1 and KRAS G12D (Q07889 564-1049, stated change not applied): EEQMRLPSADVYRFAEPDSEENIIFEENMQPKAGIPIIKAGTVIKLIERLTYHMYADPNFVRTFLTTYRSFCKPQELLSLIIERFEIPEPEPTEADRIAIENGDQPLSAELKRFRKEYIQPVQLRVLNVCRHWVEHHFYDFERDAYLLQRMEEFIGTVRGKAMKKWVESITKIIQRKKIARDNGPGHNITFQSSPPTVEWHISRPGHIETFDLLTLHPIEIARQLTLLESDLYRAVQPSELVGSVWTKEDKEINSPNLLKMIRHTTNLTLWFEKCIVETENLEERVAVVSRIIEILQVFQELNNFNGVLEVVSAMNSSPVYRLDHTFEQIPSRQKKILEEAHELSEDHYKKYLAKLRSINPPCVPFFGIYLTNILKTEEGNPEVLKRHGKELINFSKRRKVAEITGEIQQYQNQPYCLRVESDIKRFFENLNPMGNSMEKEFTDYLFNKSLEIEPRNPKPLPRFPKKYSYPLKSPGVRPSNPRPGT
Sequence of CYP3A4 (P08684 whole entry): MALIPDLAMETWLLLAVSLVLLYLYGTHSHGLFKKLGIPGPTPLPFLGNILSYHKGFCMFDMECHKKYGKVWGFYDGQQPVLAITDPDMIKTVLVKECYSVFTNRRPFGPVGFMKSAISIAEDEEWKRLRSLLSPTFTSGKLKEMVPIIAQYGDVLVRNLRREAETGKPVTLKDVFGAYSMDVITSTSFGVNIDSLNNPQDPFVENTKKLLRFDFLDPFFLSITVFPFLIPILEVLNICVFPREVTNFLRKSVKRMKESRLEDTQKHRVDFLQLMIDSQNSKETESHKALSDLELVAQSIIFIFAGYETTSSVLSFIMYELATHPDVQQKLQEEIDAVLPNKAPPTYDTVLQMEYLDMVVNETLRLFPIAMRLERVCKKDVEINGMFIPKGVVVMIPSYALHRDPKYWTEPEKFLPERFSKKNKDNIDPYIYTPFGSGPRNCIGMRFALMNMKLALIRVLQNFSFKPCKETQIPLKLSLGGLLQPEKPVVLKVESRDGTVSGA

Row | SMILES | IC50 [1, 6] | TDI 3A4 [%] (CYP3A4) | IC50 [1, 7] | IC50 [2] | MLM [% QH] [3] | RLM [% QH] [4] | HLM [% QH] [5]
1 | C[C@@H](Nc1ncnc2cc(=O)n(C3(C)CC3)cc12)c1cccc(C(F)(F)F)c1 [I-75] | 0.015 µM | 86% | – | – | – | – | –
2 | Cc1nc(N[C@H](C)c2cccc(C(F)(F)F)c2C)c2cn(C3(C)CCOC3)c(=O)cc2n1 (stereo partly drawn) [I-126] | – | 88% | 0.005 µM | 0.051 µM | – | – | –
3 | Cc1nc(N[C@H](C)c2cccc(C(F)(F)F)c2)c2cn(C3(C)CC3)c(=O)cc2n1 [I-25] | 0.013 µM | 90% | – | – | <24 % QH | <23 % QH | <24 % QH
4 | Cc1c(=O)n(C23CC(F)(C2)C3)cc2c(N[C@H](C)c3cccc(C(F)F)c3F)ncnc12 [I-170] | – | 82% | 0.012 µM | – | 51 % QH | 37 % QH | <24 % QH
5 | Cc1c(=O)n(C2(C(F)F)CC2)cc2c(N[C@H](C)c3cccc(C(F)F)c3F)ncnc12 [I-163] | – | 82% | 0.015 µM | – | – | – | –
6 | Cc1nc(N[C@H](C)c2cccc(C(C)(F)F)c2F)c2cn(C3(CF)CC3)c(=O)cc2n1 [I-53] | 0.004 µM | 84% | – | 0.074 µM | – | – | –
7 | Cc1nc(N[C@H](C)c2cccc(C(F)(F)F)c2F)c2cn(C3(C(F)F)CC3)c(=O)cc2n1 [I-98] | 0.008 µM | 85% | – | – | <24 % QH | <23 % QH | <24 % QH
8 | Cc1c(=O)n([C@@H]2C[C@H]2C(F)F)cc2c(N[C@H](C)c3cccc(C(F)F)c3F)ncnc12 [I-166] | – | 87% | 0.026 µM | – | 48 % QH | 38 % QH | 24 % QH
9 | Cc1nc(N[C@H](C)c2cccc(C(C)(F)F)c2F)c2cn(C3(C(F)F)CC3)c(=O)cc2n1 [I-54] | 0.005 µM | 84% | – | – | 55 % QH | <23 % QH | <24 % QH
10 | Cc1c(=O)n(C23CC(C2)C3)cc2c(N[C@H](C)c3cccc(C(F)F)c3F)ncnc12 [I-169] | – | 84% | 0.012 µM | – | 64 % QH | 44 % QH | <24 % QH
11 | Cc1nc(N[C@H](C)c2cccc(C(F)F)c2F)c2cn(C3(CF)CC3)c(=O)c(F)c2n1 [I-81] | 0.006 µM | 85% | – | – | 64 % QH | <23 % QH | <24 % QH
12 | Cc1nc(N[C@H](C)c2cccc(C(F)(F)F)c2)c2cn(C3(C(F)F)CC3)c(=O)cc2n1 [I-97] | 0.014 µM | – | – | 0.081 µM | <24 % QH | <23 % QH | <24 % QH
13 | Cc1nc(N[C@H](C)c2cccc(C(C)(F)F)c2F)c2cn(C3(CF)CC3)c(=O)c(F)c2n1 [I-87] | 0.004 µM | 81% | – | 0.1 µM | – | – | –
14 | Cc1nc(N[C@H](C)c2cccc(C(F)F)c2C)c2cn(C3(C)CC3)c(=O)cc2n1 [I-20] | 0.003 µM | 93% | – | – | – | – | –
15 | Cc1nc(N[C@H](C)c2cccc(C(F)F)c2C)c2cn(C3(C)CCOC3)c(=O)cc2n1 (stereo partly drawn) [I-123] | – | 87% | 0.003 µM | 0.118 µM | – | – | –
16 | Cc1nc(N[C@H](C)c2cccc(C(F)F)c2C)c2cn(C3CCC3)c(=O)cc2n1 [I-22] | 0.006 µM | 87% | – | – | – | – | –
17 | Cc1nc(N[C@H](C)c2cccc(C(F)F)c2F)c2cn(C3(C)CC3)c(=O)c(F)c2n1 [I-80] | 0.009 µM | 86% | – | – | 50 % QH | <23 % QH | <24 % QH
18 | Cc1nc(N[C@H](C)c2cccc(C(C)(F)F)c2)c2cn(C3(C)CC3)c(=O)cc2n1 [I-50] | 0.009 µM | 82% | – | – | <24 % QH | <23 % QH | <24 % QH
19 | Cc1nc(N[C@H](C)c2cccc(C(F)F)c2F)c2cn([C@H](C)C(F)(F)F)c(=O)cc2n1 [I-10] | 0.011 µM | – | – | – | 41 % QH | 40 % QH | <24 % QH
20 | Cc1nc(N[C@H](C)c2cccc(C(F)(F)C(C)(C)O)c2F)c2cn(C3(C)CC3)c(=O)c(F)c2n1 [I-88] | 0.002 µM | – | – | – | <24 % QH | <23 % QH | 24 % QH
21 | Cc1c(=O)n(C2(C)CC2)cc2c(N[C@H](C)c3cccc(C(F)F)c3F)ncnc12 [I-161] | – | – | 0.012 µM | – | 44 % QH | <23 % QH | 31 % QH
22 | Cc1nc(N[C@H](C)c2cccc(C(F)(F)F)c2C)c2cn(C3(c4ccccc4)CCOCC3)c(=O)cc2n1 [I-127] | – | 97% | 0.023 µM | – | – | – | –
23 | Cc1nc(N[C@H](C)c2cccc3c2CCC3(F)F)c2cn(C3(C)CC3)c(=O)cc2n1 [I-57] | 0.002 µM | 87% | – | 0.063 µM | – | – | –
24 | Cc1nc(N[C@H](C)c2cccc(C(F)(F)F)c2C)c2cn(C3CCOCC3)c(=O)cc2n1 [I-49] | 0.006 µM | 92% | – | 0.081 µM | – | – | –
25 | Cc1nc(N[C@H](C)c2cccc(C(F)(F)C(C)(C)O)c2F)c2cn(C34CC(C3)C4)c(=O)c(F)c2n1 [I-90] | 0.004 µM | – | – | – | <24 % QH | <23 % QH | <24 % QH
26 | Cc1nc(N[C@H](C)c2cccc(C(F)F)c2F)c2cn(C3CC(F)(F)C3)c(=O)cc2n1 [I-13] | 0.011 µM | – | – | – | <24 % QH | 52 % QH | <24 % QH
27 | Cc1nc(N[C@H](C)c2cccc3c2OCC3(F)F)c2cn(C3(C)CC3)c(=O)cc2n1 [I-101] | 0.004 µM | – | – | 0.079 µM | 59 % QH | <23 % QH | 36 % QH
28 | Cc1nc(N[C@H](C)c2cccc(C(F)(F)C(C)(C)O)c2F)c2cn(C3(C(F)F)CC3)c(=O)c(F)c2n1 [I-89] | 0.002 µM | 83% | – | – | – | – | –
